Results on 44 compounds are retold here after patent US20220169632A1, “METHODS AND MATERIALS FOR INCREASING OR MAINTAINING NICOTINAMIDE MONONUCLEOTIDE ADENYLYL TRANSFERASE-2 (NMNAT2) POLYPEPTIDE LEVELS” (University of Pittsburgh - Of the Commonwealth System of …, priority 2019, published 2022).

SMILES strings stand for the structures.

The test system of the test is NMNAT2. The experiment in a line: NMNAT2-Hibit nano-luciferase activity in stably transfected U87MG cells, various concentrations, 24 hours. The format is cell-based. The settings on record: U87MG cells stably transfected with NMNAT2-Hibit luc plasmid. The method, then: Selected compounds were tested in vitro. U87MG cells were stably transfected with NMNAT2-Hibit luc plasmid. Cells were treated with a test compound at various concentrations for 24 hours. Cells were then collected and assayed for nano-luciferase activity.
As for `Cc1cccc(Cn2cc(CCCC(=O)NCc3ccccc3F)c3ccccc32)c1` [BC20165], the “E: compound efficacy for NMNAT2 activation (concentration giving >25% increase in NMNAT2 luciferase activity)” value is “+++ (“+++” >25% increase in NMNAT2 luciferase activity at ≤1 μM.)”.
Then `Cc1ccc(C)c(Cn2cc([C@H]3C[C@@H]3C(=O)NCc3ccc(C)o3)c3ccccc32)c1` (racemic) [BC20345], with “+ (“+” >25% increase in NMNAT2 luciferase activity at >25 μM.)”; and `O=C1c2cccc3c2c(cn3Cc2cccc(F)c2)CCN1CCOc1ccccc1` [BC20341], with “+ (“+” >25% increase in NMNAT2 luciferase activity at >25 μM.)”.
As for `Cc1ccc(Cn2cc(C3CCN(Cc4cccc(C)c4)C(=O)C3)c3ccccc32)cc1` (centres unmarked) [BC20233], the entry is “++ (“++” >25% increase in NMNAT2 luciferase activity at >1 μM ≤25 μM.)”; as for `Cc1ccc(C)c(Cn2c3c(c4ccccc42)CC(C(=O)NCc2cccc(F)c2)CC3)c1` (centres unmarked) [BC20184], “+ (“+” >25% increase in NMNAT2 luciferase activity at >25 μM.)”; as for `Cc1cccc(CNC(=O)C2CCCc3c2c2ccccc2n3Cc2cccc(F)c2)c1` (centres unmarked) [BC20373], “+ (“+” >25% increase in NMNAT2 luciferase activity at >25 μM.)”.
As for `COc1ccccc1CNC(=O)CCCc1cn(Cc2cccc(F)c2)c2ccccc12` [BC20142], the entry is “++ (“++” >25% increase in NMNAT2 luciferase activity at >1 μM ≤25 μM.)”.
Regarding `Cc1ccccc1CNC(=O)c1ccc2c(c1)c(C)c(C)n2Cc1ccccc1F` [BC20105], the “E: compound efficacy for NMNAT2 activation (concentration giving >25% increase in NMNAT2 luciferase activity)” value is given as “++ (“++” >25% increase in NMNAT2 luciferase activity at >1 μM ≤25 μM.)”.
As for `O=C(NCc1ccco1)C1CCc2c(c3ccccc3n2Cc2cccc(F)c2)C1` (centres unmarked) [BC20220], the entry is “++ (“++” >25% increase in NMNAT2 luciferase activity at >1 μM ≤25 μM.)”; as for `COc1ccccc1CNC(=O)CCCc1cn(Cc2ccccc2C)c2ccccc12` [BC20155], “++ (“++” >25% increase in NMNAT2 luciferase activity at >1 μM ≤25 μM.)”; as for `Cc1ccccc1CN1CCC(c2cn(Cc3cccc(F)c3)c3ccccc23)CC1=O` (centres unmarked) [BC20320], “+ (“+” >25% increase in NMNAT2 luciferase activity at >25 μM.)”.
Then `O=C(CCCc1cn(Cc2ccccc2F)c2ccccc12)N1CCN(C(=O)c2ccco2)CC1` [BC20129], with “++ (“++” >25% increase in NMNAT2 luciferase activity at >1 μM ≤25 μM.)”.
As for `O=C(CCCc1cn(Cc2cccc(F)c2)c2ccccc12)NCc1ccco1` [BC20135], the “E: compound efficacy for NMNAT2 activation (concentration giving >25% increase in NMNAT2 luciferase activity)” value is “++ (“++” >25% increase in NMNAT2 luciferase activity at >1 μM ≤25 μM.)”.
Regarding `Cc1ccc(C)c(Cn2c(C)c([C@H]3C[C@@H]3C(=O)NCc3cccc(F)c3)c3ccccc32)c1` (racemic) [BC20302], the “E: compound efficacy for NMNAT2 activation (concentration giving >25% increase in NMNAT2 luciferase activity)” value is recorded as “+ (“+” >25% increase in NMNAT2 luciferase activity at >25 μM.)”.
As for `CCCCN(CC)Cc1ccc(CNC(=O)c2ccc3c(c2)c(C)c(C)n3Cc2ccccc2C)o1` [BC20266], the entry is “++ (“++” >25% increase in NMNAT2 luciferase activity at >1 μM ≤25 μM.)”.
Then `COc1ccc(CNC(=O)N2CCc3c(c4ccccc4n3Cc3cccc(F)c3)C2)cc1` [BC20332], with “++ (“++” >25% increase in NMNAT2 luciferase activity at >1 μM ≤25 μM.)”; and `Cc1ccccc1Cn1cc(CCCC(=O)NCc2ccccc2F)c2ccccc21` [BC20151], with “++ (“++” >25% increase in NMNAT2 luciferase activity at >1 μM ≤25 μM.)”.
Then `Cc1ccc(Cn2c3c(c4ccccc42)C(C(=O)NCc2ccco2)CCC3)cc1` (centres unmarked) [BC20383], with “+ (“+” >25% increase in NMNAT2 luciferase activity at >25 μM.)”; and `Cc1ccc(Cn2cc([C@H]3C[C@@H]3C(=O)NCc3cccc(C)c3)c3ccccc32)cc1` (racemic) [BC20297], with “+ (“+” >25% increase in NMNAT2 luciferase activity at >25 μM.)”; and `COc1ccccc1CNC(=O)CCCc1cn(Cc2cccc(C)c2)c2ccccc12` [BC20213], with “++ (“++” >25% increase in NMNAT2 luciferase activity at >1 μM ≤25 μM.)”.
`Cc1cccc(CNC(=O)CCCc2cn(Cc3cccc(C)c3)c3ccccc23)c1` [BC20168]: the “E: compound efficacy for NMNAT2 activation (concentration giving >25% increase in NMNAT2 luciferase activity)” value was “++ (“++” >25% increase in NMNAT2 luciferase activity at >1 μM ≤25 μM.)”.
Then `Cc1ccc(C)c(Cn2cc3c4c(cccc42)C(=O)N(Cc2ccccc2F)CC3)c1` [BC20269], with “+ (“+” >25% increase in NMNAT2 luciferase activity at >25 μM.)”; and `Cc1ccccc1CNC(=O)c1ccc2c(c1)c(C)c(C)n2Cc1cccc(F)c1` [BC20113], with “++ (“++” >25% increase in NMNAT2 luciferase activity at >1 μM ≤25 μM.)”.
As for `COc1cccc(CNC(=O)c2ccc3c(c2)c(C)c(C)n3Cc2ccccc2C)c1` [BC20205], the entry is “+ (“+” >25% increase in NMNAT2 luciferase activity at >25 μM.)”; as for `Cc1cccc(Cn2cc(CCCC(=O)NCc3cccnc3)c3ccccc32)c1` [BC20173], “++ (“++” >25% increase in NMNAT2 luciferase activity at >1 μM ≤25 μM.)”; as for `Cc1ccc(C)c(Cn2c(C(F)F)c(CCC(=O)NCc3ccncc3)c3ccccc32)c1` [BC20404], “++ (“++” >25% increase in NMNAT2 luciferase activity at >1 μM ≤25 μM.)”.
Then `CCCCN(CC)Cc1ccc(CNC(=O)CCCc2cn(Cc3ccccc3F)c3ccccc23)o1` [BC20211], with “+++ (“+++” >25% increase in NMNAT2 luciferase activity at ≤1 μM.)”; and `Cc1ccc(C)c(Cn2c(C(F)F)c(CCC(=O)N3CCN(C(=O)c4ccco4)CC3)c3ccccc32)c1` [BC20400], with “++ (“++” >25% increase in NMNAT2 luciferase activity at >1 μM ≤25 μM.)”; and `Cc1ccc(C)c(Cn2cc3c4c(cccc42)C(=O)N(Cc2ccccc2C)CC3)c1` [BC20271], with “+ (“+” >25% increase in NMNAT2 luciferase activity at >25 μM.)”.
As to `Cc1ccc(C)c(Cn2cc([C@H]3C[C@@H]3C(=O)NCc3ccncc3)c3ccccc32)c1` (racemic) [BC20352], the “E: compound efficacy for NMNAT2 activation (concentration giving >25% increase in NMNAT2 luciferase activity)” value was “+ (“+” >25% increase in NMNAT2 luciferase activity at >25 μM.)”.
As for `Cc1cccc(CNC(=O)c2ccc3c(c2)c(C)c(C)n3Cc2ccccc2F)c1` [BC20195], the entry is “+ (“+” >25% increase in NMNAT2 luciferase activity at >25 μM.)”.
Then `Cc1ccc(CNC(=O)CCCc2cn(Cc3ccccc3C)c3ccccc23)o1` [BC20150], with “++ (“++” >25% increase in NMNAT2 luciferase activity at >1 μM ≤25 μM.)”; and `O=C(NCc1ccco1)N1CCc2c(c3ccccc3n2Cc2cccc(F)c2)C1` [BC20308], with “++ (“++” >25% increase in NMNAT2 luciferase activity at >1 μM ≤25 μM.)”.
As for `Cc1ccccc1CNC(=O)Cn1c2c(c3ccccc31)CC(C(=O)NCc1ccco1)CC2` (centres unmarked) [BC20287], the entry is “++ (“++” >25% increase in NMNAT2 luciferase activity at >1 μM ≤25 μM.)”.
`O=C(CCCc1cn(Cc2cccc(F)c2)c2ccccc12)NCCc1ccccc1` [BC20146]: the “E: compound efficacy for NMNAT2 activation (concentration giving >25% increase in NMNAT2 luciferase activity)” value is given as “++ (“++” >25% increase in NMNAT2 luciferase activity at >1 μM ≤25 μM.)”.
Then `O=C(Cn1c2c(c3ccccc31)CC(C(=O)NCc1cccnc1)CC2)NCc1ccco1` (centres unmarked) [BC20242], with “+ (“+” >25% increase in NMNAT2 luciferase activity at >25 μM.)”.
Then `COc1cccc(CNC(=O)C2CCCc3c2c2ccccc2n3Cc2ccc(C)cc2)c1` (centres unmarked) [BC20387], with “+ (“+” >25% increase in NMNAT2 luciferase activity at >25 μM.)”; and `Cc1ccc(Cn2c3c(c4ccccc42)C(C(=O)NCc2cccnc2)CCC3)cc1` (centres unmarked) [BC20389], with “++ (“++” >25% increase in NMNAT2 luciferase activity at >1 μM ≤25 μM.)”; and `O=C(Cn1c2c(c3ccccc31)CC(C(=O)NCc1ccco1)CC2)NCc1cccc(F)c1` (centres unmarked) [BC20286], with “++ (“++” >25% increase in NMNAT2 luciferase activity at >1 μM ≤25 μM.)”.
With `COc1cccc(CNC(=O)C2CCc3c(c4ccccc4n3CC(=O)NCc3ccco3)C2)c1` (centres unmarked) [BC20241], the “E: compound efficacy for NMNAT2 activation (concentration giving >25% increase in NMNAT2 luciferase activity)” value is given as “++ (“++” >25% increase in NMNAT2 luciferase activity at >1 μM ≤25 μM.)”.
Turning to `CC(Cc1ccco1)NC(=O)CCCc1cn(Cc2ccccc2F)c2ccccc12` (centres unmarked) [BC20130], the “E: compound efficacy for NMNAT2 activation (concentration giving >25% increase in NMNAT2 luciferase activity)” value was “++ (“++” >25% increase in NMNAT2 luciferase activity at >1 μM ≤25 μM.)”.
As for `CCCCN(CC)Cc1ccc(CNC(=O)CCCc2cn(Cc3ccccc3C)c3ccccc23)o1` [BC20162], the entry is “+++ (“+++” >25% increase in NMNAT2 luciferase activity at ≤1 μM.)”; as for `O=C(C1CCCc2c1c1ccccc1n2Cc1cccc(F)c1)N(CCCN1CCOCC1)Cc1ccco1` (centres unmarked) [BC20382], “++ (“++” >25% increase in NMNAT2 luciferase activity at >1 μM ≤25 μM.)”.
In the case of `O=C(NCc1ccccc1F)C1CCc2c(c3ccccc3n2Cc2cccc(F)c2)C1` (centres unmarked) [BC20256], the “E: compound efficacy for NMNAT2 activation (concentration giving >25% increase in NMNAT2 luciferase activity)” value is “+ (“+” >25% increase in NMNAT2 luciferase activity at >25 μM.)”.
